As usually defined, the IC50 is the concentration needed to halve the response being measured. Low readings indicate greater potency, high ones weaker potency.

The experiment deals with T1, human insulin (Homo sapiens, UniProt P01308).
T1 construct: gene INS; Human insulin (I2643, recombinant, expressed in yeast); 51 amino acids divided into two chains
Nature of the experiment: ThT fluorescence assay of insulin amyloid aggregation ([…] insulin, pH […] °C), supported by kinetics, AFM and ATR-FTIR. The format is biochemical.

T1 sequence (P01308 25-54): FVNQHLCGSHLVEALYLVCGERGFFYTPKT
T1 sequence (P01308 90-110): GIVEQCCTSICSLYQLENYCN

For the molecule `O=C(O[C@@H]1Cc2c(O)cc(O)cc2O[C@@H]1c1cc(O)c(O)c(O)c1)c1cc(O)c(O)c(O)c1` [EGCG, (-)-epigallocatechin gallate], 476 ± 32.5 µM corresponded to half-maximal inhibition (IC50).

The record behind these values is PMC7272432, “Amyloid Aggregation of Insulin: An Interaction Study of Green Tea Constituents” (Scientific Reports, 2020).
